Laboratory results as given in patent US9247759B2, “Identification of human T2R receptors that respond to bitter compounds that elicit the bitter taste in compositions, and the use thereof in assays to identify compounds that inhibit (block) bitter taste in compositions and use thereof” (SENOMYX, INC., priority 2007, dated 2016).
Read-outs that look alike come from different tables or passages of the source.

Target: hT2R8 (Homo sapiens (Human), UniProt Q9NYW2)
Test: hT2R8 antagonist high-throughput FLIPR assay, stable cell line with G16g44, agonist andrographolide
Format: cell-based
From the text: After a ligand is identified for a particular hT2R, a HEK293 cell line stably expressing both the hT2R and G16gust44 are generated, facilitating future screening assays to identify other ligands that activate the particular hT2R or which modulate (block or enhance) the activation of this hT2R by another bitter ligand such as a bitter compound contained in coffee. This avoids the need for transient transfection.
(§1) To identify antagonists, cell lines stably expressing hT2R8 and hT2R14, respectively, together with the promiscuous chimeric G16g44 protein were generated as described in previous patent applications. A high-throughput assay was established using the stable cell lines and FLIPR (Fluorescent Imaging Plate Reader). An agonist of hT2R8 or hT2R14 was used to activate the receptors up to 70-80% of their respective maximal activity. For hT2R8, the agonist used was andrographolide (200 λM); for hT2R14, it was aristolochic acid (3 μM). To identify antagonists, compounds with diverse chemical structures were added together with the agonist.
as §1, with “hT2R8” for “hT2R8 and hT2R14, respectively,”, “hT2R8” for “hT2R8 or hT2R14”, “(200” for “(200 λM); for hT2R14, it was aristolochic acid (3”

[1] = table after Example 12-37, read-out: hT2R8 IC50
[2] = read-out: IC50 on hT2R8 bitter receptor
[3] = table after Example 10-97, read-out: hT2R8 IC50
[4] = unit uM, read-out: IC50 on hT2R08 bitter receptor

hT2R8, sequence (Q9NYW2 whole entry): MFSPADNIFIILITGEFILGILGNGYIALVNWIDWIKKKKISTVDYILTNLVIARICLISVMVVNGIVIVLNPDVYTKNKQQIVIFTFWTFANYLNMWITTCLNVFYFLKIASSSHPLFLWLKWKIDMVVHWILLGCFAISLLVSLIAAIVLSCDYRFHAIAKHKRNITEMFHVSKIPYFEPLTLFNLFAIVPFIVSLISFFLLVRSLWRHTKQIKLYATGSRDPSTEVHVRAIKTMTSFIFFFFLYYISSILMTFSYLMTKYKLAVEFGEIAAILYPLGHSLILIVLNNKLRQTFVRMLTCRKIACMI

COC(=O)COc1cccc(CN2C(=O)N(c3cnn(Cc4c(C)noc4C)c3)C(=O)C2(C)C)c1 [Example 12-75, methyl 2-(3-((3-(1-((3,5-dimethylisoxazol-4-yl)methyl)-1H-pyrazol-4-yl)-5,5-dimethyl-2,4-dioxoimidazolidin-1-yl)methyl)phenoxy)acetate]
IC50 [1]: 0.53 µM

COCc1cccc(CN2C(=O)N(c3cnn(Cc4c(C)noc4C)c3)C(=O)C2(C)C)c1 [Example 12-35, 3-(1-((3,5-dimethylisoxazol-4-yl)methyl)-1H-pyrazol-4-yl)-1-(3-(methoxymethyl)benzyl)-5,5-dimethylimidazolidine-2,4-dione]
IC50 [2]: 0.13 µM

Cc1noc(C)c1Cn1cc(N2C(=O)N(Cc3ccc(O)cc3)C(C)(C)C2=O)cn1 [Example 12-38, 3-(1-((3,5-dimethylisoxazol-4-yl)methyl)-1H-pyrazol-4-yl)-1-(4-hydroxybenzyl)-5,5-dimethylimidazolidine-2,4-dione]
IC50 [1]: 0.07 µM

COCCOc1ccccc1CN1CC(=O)N(c2cnn(Cc3c(C)noc3C)c2)C1=O [Example 10-16, 3-(1-((3,5-dimethylisoxazol-4-yl)methyl)-1H-pyrazol-4-yl)-1-(2-(2-methoxyethoxy)benzyl)imidazolidine-2,4-dione]
IC50 [3]: 0.131 µM | IC50 [4]: 0.1 µM

Cc1noc(C)c1Cn1cc(N2C(=O)N(Cc3ccc(C#N)cc3)C(C)(C)C2=O)cn1 [Example 12-16, 4-((3-(1-((3,5-dimethylisoxazol-4-yl)methyl)-1H-pyrazol-4-yl)-5,5-dimethyl-2,4-dioxoimidazolidin-1-yl)methyl)benzonitrile]
IC50 [2]: 0.04 µM

Cc1noc(C)c1Cn1cc(N2C(=O)NC(C)(C)C2=O)cn1 [Example 12-16a, 3-(1-((3,5-dimethylisoxazol-4-yl)methyl)-1H-pyrazol-4-yl)-5,5-dimethylimidazolidine-2,4-dione]
IC50 [2]: 2.27 µM

Cc1noc(C)c1Cn1cc(NC(=O)C2(c3ccccc3)CC2)cn1 [Example 4-11, N-(1-((3,5-dimethylisoxazol-4-yl)methyl)-1H-pyrazol-4-yl)-1-phenylcyclopropanecarboxamide]
IC50 [2]: 0.25 µM

COc1cccc(C(=O)Nc2cnn(Cc3c(C)noc3C)c2)c1OC [Example 4-25, N-(1-((3,5-dimethylisoxazol-4-yl)methyl)-1H-pyrazol-4-yl)-2,3-dimethoxybenzamide]
IC50 (Table A, read-out: hT2R8 IC50): 0.61 µM

Cc1cc(CN2C(=O)N(c3cnn(Cc4c(C)noc4C)c3)C(=O)C2(C)C)n(C)n1 [Example 12-26, 1-((1,3-dimethyl-1H-pyrazol-5-yl)methyl)-3-(1-((3,5-dimethylisoxazol-4-yl)methyl)-1H-pyrazol-4-yl)-5,5-dimethylimidazolidine-2,4-dione]
IC50 [2]: 0.23 µM

Cc1noc(C)c1Cn1cc(NC(=O)c2cc(Cl)c3c(c2)OCCO3)cn1 [Example 4-91, 8-chloro-N-(1-((3,5-dimethylisoxazol-4-yl)methyl)-1H-pyrazol-4-yl)-2,3-dihydrobenzo[b][1,4]dioxine-6-carboxamide]
IC50 (Table A, read-out: hT2R8 IC50): 0.1 µM

CNc1cnn(Cc2c(C)noc2C)c1 [Example 4-96, 1-((3,5-dimethylisoxazol-4-yl)methyl)-N-methyl-1H-pyrazol-4-amine]
IC50 (Table A, read-out: hT2R8 IC50): 8.76 µM

Cc1noc(C)c1Cn1cc(N2C(=O)N(Cc3cccc(C(=O)O)c3)C(C)(C)C2=O)cn1 [Example 12-73, 3-((3-(1-((3,5-dimethylisoxazol-4-yl)methyl)-1H-pyrazol-4-yl)-5,5-dimethyl-2,4-dioxoimidazolidin-1-yl)methyl)benzoic acid]
IC50 [1]: 0.46 µM

CCOc1cccc(C(=O)Nc2cnn(Cc3c(C)noc3C)c2)c1 [Example 4-59, N-(1-((3,5-dimethylisoxazol-4-yl)methyl)-1H-pyrazol-4-yl)-3-ethoxybenzamide]
IC50 (Table A, read-out: hT2R8 IC50): 0.22 µM

Cc1noc(C)c1Cn1cc(NC(=O)CC(C)c2ccccc2)cn1 (stereo not shown) [Example 4-12, N-(1-((3,5-dimethylisoxazol-4-yl)methyl)-1H-pyrazol-4-yl)-3-phenylbutanamide]
IC50 [2]: 0.28 µM

Cc1noc(C)c1Cn1cc(N2C(=O)[C@@H](C)N(Cc3cccc(O)c3)C2=O)cn1 [Example 12-7, (R)-3-(1-((3,5-dimethylisoxazol-4-yl)methyl)-1H-pyrazol-4-yl)-1-(3-hydroxybenzyl)-5-methylimidazolidine-2,4-dione]
IC50 [2]: 0.02 µM

Cc1noc(C)c1Cn1cc(N2C(=O)[C@H]3Cc4ccc(O)cc4CN3C2=O)cn1 [Example 13-2, (R)-2-(1-((3,5-dimethylisoxazol-4-yl)methyl)-1H-pyrazol-4-yl)-7-hydroxy-10,10a-dihydroimidazo[1,5-b]isoquinoline-1,3(2H,5H)-dione]
IC50 [2]: 0.03 µM

Cc1noc(C)c1Cn1cc(N2C(=O)CN(Cc3cccc(C=O)c3)C2=O)cn1 [Example 10-24, 3-((3-(1-((3,5-dimethylisoxazol-4-yl)methyl)-1H-pyrazol-4-yl)-2,4-dioxoimidazolidin-1-yl)methyl)benzaldehyde]
IC50 [3]: 0.201 µM | IC50 [4]: 0.2 µM

CO[C@@H](C(=O)Nc1cnn(Cc2c(C)noc2C)c1)c1ccccc1 [Example 4-68, (R)-N-(1-((3,5-dimethylisoxazol-4-yl)methyl)-1H-pyrazol-4-yl)-2-methoxy-2-phenylacetamide]
IC50 (Table A, read-out: hT2R8 IC50): 5 µM

Cc1noc(C)c1Cn1cc(N2C(=O)[C@@H]3Cc4ccc(O)cc4CN3C2=O)cn1 [Example 13-1, (S)-2-(1-((3,5-dimethylisoxazol-4-yl)methyl)-1H-pyrazol-4-yl)-7-hydroxy-10,10a-dihydroimidazo[1,5-b]isoquinoline-1,3(2H,5H)-dione]
IC50 [2]: 0.02 µM

COCCN1C(=O)N(c2cnn(Cc3c(C)noc3C)c2)C(=O)C1(C)C [Example 12-28, 3-(1-((3,5-dimethylisoxazol-4-yl)methyl)-1H-pyrazol-4-yl)-1-(2-methoxyethyl)-5,5-dimethylimidazolidine-2,4-dione]
IC50 [2]: 0.59 µM

Cc1noc(C)c1Cn1cc(N2C(=O)NC(CC3CCCCC3)C2=O)cn1 (stereo not shown) [Example 10-57, 5-(cyclohexylmethyl)-3-(1-((3,5-dimethylisoxazol-4-yl)methyl)-1H-pyrazol-4-yl)imidazolidine-2,4-dione]
IC50 [2]: 0.96 µM | IC50 [3]: 0.962 µM

Cc1noc(C)c1Cn1cc(N2C(=O)CN(Cc3ccccc3C(F)(F)F)C2=O)cn1 [Example 10-22, 3-(1-((3,5-dimethylisoxazol-4-yl)methyl)-1H-pyrazol-4-yl)-1-(2-(trifluoromethyl)benzyl)imidazolidine-2,4-dione]
IC50 [3]: 0.221 µM | IC50 [4]: 0.2 µM

Cc1noc(C)c1Cn1cc(N2Cc3ccccc3C2=O)cn1 [Example 9-3, 2-(1-((3,5-dimethylisoxazol-4-yl)methyl)-1H-pyrazol-4-yl) isoindolin-1-One]
IC50 [2]: 11 µM

Cc1ccccc1CN1C(=O)N(c2cnn(Cc3c(C)noc3C)c2)C(=O)C1(C)C [Example 12-22, 3-(1-((3,5-dimethylisoxazol-4-yl)methyl)-1H-pyrazol-4-yl)-5,5-dimethyl-1-(2-methylbenzyl)imidazolidine-2,4-dione]
IC50 [2]: 0.1 µM

CCCn1c(=O)n(-c2cnn(Cc3c(C)noc3C)c2)c(=O)n1Cc1ccccc1 [Example 10-93, 1-benzyl-4-(1-((3,5-dimethylisoxazol-4-yl)methyl)-1H-pyrazol-4-yl)-2-propyl-1,2,4-triazolidine-3,5-dione]
IC50 [2]: 0.06 µM | IC50 [3]: 0.062 µM

Cc1noc(C)c1Cn1cc(N(C)C(=O)C(C)c2ccccc2)cn1 (stereo not shown) [Example 4-65, N-(1-((3,5-dimethylisoxazol-4-yl)methyl)-1H-pyrazol-4-yl)-N-methyl-2-phenylpropanamide]
IC50 (Table A, read-out: hT2R8 IC50): 2.81 µM

Cc1noc(C)c1Cn1cc(N2C(=O)[C@H](CO)N(Cc3cccc(O)c3)C2=O)cn1 [Example 12-9, (S)-3-(1-((3,5-dimethylisoxazol-4-yl)methyl)-1H-pyrazol-4-yl)-1-(3-hydroxybenzyl)-5-(hydroxymethyl)imidazolidine-2,4-dione]
IC50 [2]: 0.04 µM

Cc1noc(C)c1Cn1cc(NC(=O)c2ccc[nH]2)cn1 [Example 4-13, N-(1-((3,5-dimethylisoxazol-4-yl)methyl)-1H-pyrazol-4-yl)-1H-pyrrole-2-carboxamide]
IC50 [2]: 0.57 µM

COc1cccc(CN2CC(=O)N(c3cnn(Cc4c(C)noc4C)c3)C2=O)n1 [Example 10-75, 3-(1-((3,5-dimethylisoxazol-4-yl)methyl)-1H-pyrazol-4-yl)-1-((6-methoxypyridin-2-yl)methyl)imidazolidine-2,4-dione]
IC50 [2]: 0.23 µM | IC50 [3]: 0.229 µM

CO[C@H](C(=O)Nc1cnn(Cc2c(C)noc2C)c1)c1ccccc1 [Example 4-67, (S)-N-(1-((3,5-dimethylisoxazol-4-yl)methyl)-1H-pyrazol-4-yl)-2-methoxy-2-phenylacetamide]
IC50 (Table A, read-out: hT2R8 IC50): 8.6 µM

Cc1noc(C)c1Cn1cc(N2C(=O)CN(Cc3ccccc3N)C2=O)cn1 [Example 10-34, 1-(2-aminobenzyl)-3-(1-((3,5-dimethylisoxazol-4-yl)methyl)-1H-pyrazol-4-yl)imidazolidine-2,4-dione]
IC50 [3]: 0.163 µM | IC50 [4]: 0.02 µM

Cc1noc(C)c1Cn1cc(N2CCN(Cc3ccccc3)C2=O)cn1 [Example 10-88, 1-benzyl-3-(1-((3,5-dimethylisoxazol-4-yl)methyl)-1H-pyrazol-4-yl)imidazolidin-2-One]
IC50 [2]: 0.71 µM | IC50 [3]: 1.25 µM
